Source: patent US11883458B2, “Herb medicine composition for alleviating or treating asthma, and oriental pharmacopuncture solution containing same and injection containing same” (priority 2019, dated 2024)

System: asthma-induced BALB/c mice (ovalbumin)
Test: Ovalbumin-induced asthma in BALB/c mice: white blood cell, eosinophil and IgE measurement
Assay type: in vivo
Details: asthma-induced female BALB/c mice; injected twice a week for 4 weeks; mean of 3 mice; mouse blood
Protocol: Ovalbumin was administered to BALB/c mice to induce asthma. The total white blood cell (WBC) count, eosinophil count, and […] in bronchoalveolar lavage fluid (BALF) were measured.
As experimental animals, BALB/c mice (supplier: Samtako Korea), which have been widely used in asthma tests, were used. Female BALB/c mice were used and were 6 weeks old at the time of acquisition and 7 weeks old at the time of the experiment. After acquisition, the mice were acclimatized in an animal test room for 6 days, and observed at least once a day. During the acclimatization period, the mice were distinguished by skin mark using a red oil magic pen. During the administration and observation period, the mice were distinguished by skin mark using a black oil magic pen. An individual identification card was attached to a breeding cage. The mice were housed in a breeding area under the condition of a temperature of 23±3° C., a relative humidity of 55±15%, a ventilation frequency of 10 to 20 times/hr, an illumination time of 12 hours, and an illuminance of 150 to 300 Lux. During the period of acclimatization and administration, at least four mice were housed in each polycarbonate breeding cage containing an appropriate amount of rug. During the acclimatization period, mice determined to be healthy were weighed and ranked according to weight. The mice were distributed into groups so that the mean weights of each group were equal.
As an asthma inducer, refrigerated ovalbumin (OVA) (catalog No.: A5503, supplier: Sigma Aldrich, Louis, Missouri, USA) was used. As an adjuvant, refrigerated aluminum hydroxide (Alum) (catalog No.: 77161, supplier: Thermo Fisher Scientific Inc, Waltham, Massachussets, USA) was used. […]
After 4 weeks, the measurement of the white blood cell (WBC) count, eosinophil count, and IgE was performed using mouse blood. The mean values thereof were calculated, and the results are illustrated in Table 3 below.

C[C@@H]1C[C@H]2[C@@H]3CCC4=CC(=O)C=C[C@]4(C)[C@@]3(F)[C@@H](O)C[C@]2(C)[C@@]1(O)C(=O)CO [Positive control, dexamethasone]
Eosinophil count: 1.41 X10^2 cells/μl
IgE: 23.45 µg/mL
WBC count: 39.83 X10^3 cells/μl
